Measured values as given in US20080038208A1, “Pharmaceutical/cosmetic compositions comprising the lysine-d-proline-valine tripeptide” (SOCIETE L'OREAL S.A., priority 1995, published 2008).
Each block holds one substance with its values, some of them ahead of it.

What was measured:
mRNA of IL-1α = assay: Expression of IL-1α messenger RNA in plucked hairs (RT-PCR, relative to GAPDH), 3 h 30 min; assay type: cell-based, human; conditions: treated batch, band intensity divided by GAPDH, control batch 100%
Experimental: (§1) Inhibition of the expression of the messenger RNAs of proinflammatory and inflammatory cytokines in response to the Ac-KPV-NH2* tripeptide.
(§2) Ten plucked hairs were removed from the region of the vertex of a volunteer suffering from inflammatory alopecia. These were placed in a Williams' survival medium E (marketed by Gibco BRL) containing penicillin G (100 units/ml), streptomycin S (100 μg/ml) and amphotericin (250 ng/ml), in the presence (treated batch) or in the absence (control) of the Ac-KPV-NH2* tripeptide, synthesized to order by Neosystem S. A., (Strasbourg).
(§3) After incubating for 3 h, 30 min, the messenger RNAs corresponding to these two batches of hair were purified from a “quick prep mRNA purification kit” marketed by Pharmacia. DNAs complementary to these mRNAs were then prepared by means of a reverse transcription kit marketed by Pharmacia, the manufacturer's instructions being followed, and then subjected to a polymerization chain reaction (PCR) stage by using primers specific for the mRNAs of glyceraldehyde-3-phosphate dehydrogenase (GAPDH), of IL-1α, of the type-1 IL-1 receptor and of the type-2 IL-1 receptor. The amounts of amplified DNA were then evaluated by electrophoresis on 1.5% agarose gel in the presence of ethidium bromide. […]

[1] = tested on: catagenic papilla cells (PGE2 production); assay: Inhibition of IL-1α-induced production of PGE2 by catagenic papilla cells cultured in vitro; assay type: cell-based; conditions: 10 μM tripeptide; for PGE2: IL-1α 10 ng/ml for 20 hours, control 9.2, IL-1α alone 100.2; for % inhibition: PGE2 production induced by IL-1α 10 ng/ml
Experimental: Measurement of the inhibition of the production of PGE2 by catagenic papilla cells cultured in vitro.
The cells (1,000 per well), at the 24th passage, were incubated in 199 medium marketed by Gibco in the presence of 1% foetal calf serum and of antibiotics. 20 hours later, the medium was replaced by an identical medium, but containing the tripeptides to be evaluated at a final concentration of 10 μM. 5 hours later, interleukin-1α was added at a final concentration of 10 ng/ml. 20 hours later, the PGE2 levels produced by the cultured papilla cells were evaluated by means of a Biotrack kit marketed by Amersham, the manufacturer's instructions being followed. This method thus made it possible to evaluate the inhibiting effect of these tripeptides on the production of PGE2 induced by a proinflammatory cytokine: interleukin-1α.

[2] = tested on: mRNA of the type-1 IL-1 receptor (IL-1R1); assay: Expression of type-1 IL-1 receptor messenger RNA in plucked hairs (RT-PCR, relative to GAPDH), 3 h 30 min; assay type: cell-based, human; conditions: treated batch, band intensity divided by GAPDH, control batch 100%
Experimental: as §1, §2, §3

interleukin-1α = assay: Production of interleukin-1α in the supernatant of plucked hairs from a patient with inflammatory alopecia (ELISA); assay type: cell-based, human; conditions: 20 hours; for % of inhibition: IL-1α in supernatant of plucked hairs; for IL-1α: supernatant of plucked hairs, control 21.8 pg/ml
Experimental: Dose-response activity of the Ac-KPV-NH2* tripeptide with respect to the production of interleukin-1α in the supernatant of plucked hairs emanating from a patient afflicted with inflammatory alopecia.
Plucked hairs were removed from the region of the vertex of a volunteer suffering from inflammatory alopecia. They were placed in a Williams' survival medium E (marketed by Gibco BRL) containing penicillin G (100 units/ml), streptomycin S (100 μg/ml) and amphotericin (250 ng/ml), in the presence or in the absence (control) of the Ac-KPV-NH2* tripeptide, synthesized to order by Neosystem S. A. (Strasbourg), at the doses indicated. After incubating for 20 hours, the culture supernatants were collected in a tube and then centrifuged for 5 minutes at 14,000 revolutions/minute (Eppendorff centrifuge, model 5415C). The supernatants were then collected in a clean tube and placed at 4° C.
The interleukin-1α concentration was then evaluated with respect to 100 μl of supernatant by means of a Biotrak ELISA kit marketed by Amersham, according to the manufacturer's instructions.

mRNAs of IL-1α = assay: Expression of the mRNAs of IL-1α calculated from the IL-1α/GAPDH ratio, plucked hairs of two donors, 20 hours; assay type: cell-based, human
Experimental: Inhibiting effect of Ac-KPV-NH2* on the expression of the mRNAs of IL-1α, calculated from the IL-1α/GAPDH ratio.
5 hairs were plucked from two different donors and were then incubated for 20 hours at 37° C. (5% CO2) in Williams' medium E supplemented with antibiotics and with glutamine and in the presence of Ac-KPV-NH2* at the concentrations indicated. A control was carried out in which there was no peptide added.

- % of expression IL-1R1 [2]: 26%
Substance: Acetyl-(D)Lys-(D)Pro-(D)Val-NH2 [Ac—KPV—NH2*]
- % of expression IL-1α (mRNA of IL-1α): 0%
- PGE2 [1]: 28.0 pg/mL
- % inhibition [1]: 78%
- % of inhibition (interleukin-1α; 1 μM): 49%
- IL-1α (interleukin-1α; 1 μM): 11.1 pg/mL
- % of inhibition (interleukin-1α; 10 μM): 72%
- IL-1α (interleukin-1α; 10 μM): 6.1 pg/mL
- expression of the mRNAs of IL-1α (IL-1α/GAPDH ratio), % of the control (mRNAs of IL-1α; donor A, 1 μM): 51%
- expression of the mRNAs of IL-1α (IL-1α/GAPDH ratio), % of the control (mRNAs of IL-1α; donor A, 10 μM): 28%
- expression of the mRNAs of IL-1α (IL-1α/GAPDH ratio), % of the control (mRNAs of IL-1α; donor B, 0.1 μM): 53%
- expression of the mRNAs of IL-1α (IL-1α/GAPDH ratio), % of the control (mRNAs of IL-1α; donor B, 1 μM): 62%
- expression of the mRNAs of IL-1α (IL-1α/GAPDH ratio), % of the control (mRNAs of IL-1α; donor B, 10 μM): 28.7%

Substance: Acetyl-(L)Lys-(D)Pro-(L)Val-NH2 [Ac—K—(D)P—V—NH2***]
- PGE2 [1]: 24.6 pg/mL
- % inhibition [1]: 75%

Substance: Acetyl-(L)Lys-(L)Pro-(L)Val-NH2 [Ac—K—P—V—NH2**, reference compound]
- PGE2 [1]: 10.0 pg/mL
- % inhibition [1]: 90%
